According to ChEMBL document CHEMBL2375249, “Synthesis and biological evaluation of novel pyrrolidine-2,5-dione derivatives as potential antidepressant agents. Part 1” (Eur J Med Chem, 2013):
Active and inactive are the calls of the source. The calls are words filed in the database; no cut-off is given here.

Assays:
[1] = biological target: Sodium-dependent serotonin transporter (Rattus norvegicus, UniProt P31652); assay: Displacement of [3H]-citalopram from SERT in rat cerebral cortex after 1 hr by liquid scintillation counting analysis; type: tissue-based
Mus musculus [2] = assay: Induction of hypothermia in CD1 mouse assessed as change in rectal body temperature at 2.5 mg/kg, ip administered 30 mins prior to test measured after 60 mins relative to control; type: functional, organism-based; design: dose 2.5 mg/kg
Mus musculus [3] = assay: Induction of hypothermia in CD1 mouse assessed as change in rectal body temperature at 5 mg/kg, ip administered 30 mins prior to test measured after 90 mins relative to control; type: functional, organism-based; design: dose 5 mg/kg
Mus musculus [4] = assay: Induction of hypothermia in CD1 mouse assessed as change in rectal body temperature at 2.5 mg/kg, ip administered 30 mins prior to test measured after 120 mins relative to control; type: functional, organism-based; design: dose 2.5 mg/kg
[5] = biological target: T1, 5-hydroxytryptamine receptor 1A (Rattus norvegicus, UniProt P19327); assay: Displacement of [3H]-8-OH-DPAT from 5HT1A receptor in rat hippocampal membranes after 20 mins; type: cell membranes, Hippocampus, Membrane
T1 sequence (P19327 whole entry): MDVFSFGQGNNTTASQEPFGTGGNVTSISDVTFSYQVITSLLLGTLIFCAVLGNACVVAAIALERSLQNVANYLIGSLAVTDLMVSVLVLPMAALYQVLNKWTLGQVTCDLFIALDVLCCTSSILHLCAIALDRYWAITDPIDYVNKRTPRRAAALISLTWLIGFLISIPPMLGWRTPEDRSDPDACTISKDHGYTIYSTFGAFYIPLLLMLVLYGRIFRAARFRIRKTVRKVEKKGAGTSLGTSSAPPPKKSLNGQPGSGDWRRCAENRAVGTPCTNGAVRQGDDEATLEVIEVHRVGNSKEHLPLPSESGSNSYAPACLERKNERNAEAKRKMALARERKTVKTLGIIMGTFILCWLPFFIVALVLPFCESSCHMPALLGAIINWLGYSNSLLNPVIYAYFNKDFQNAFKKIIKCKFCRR

Mus musculus [6] = assay: Induction of hypothermia in CD1 mouse assessed as change in rectal body temperature at 2.5 mg/kg, ip administered 30 mins prior to test measured after 60 mins in presence of WAY 100635 relative to control; type: functional, organism-based; design: dose 2.5 mg/kg
Mus musculus [7] = assay: Induction of hypothermia in CD1 mouse assessed as change in rectal body temperature at 2.5 mg/kg, ip administered 30 mins prior to test measured after 90 mins relative to control; type: functional, organism-based; design: dose 2.5 mg/kg
Mus musculus [8] = assay: Induction of hypothermia in CD1 mouse assessed as change in rectal body temperature at 5 mg/kg, ip administered 30 mins prior to test measured after 30 mins relative to control; type: functional, organism-based; design: dose 5 mg/kg
Mus musculus [9] = assay: Induction of hypothermia in CD1 mouse assessed as change in rectal body temperature at 2.5 mg/kg, ip administered 30 mins prior to test measured after 30 mins in presence of WAY 100635 relative to control; type: functional, organism-based; design: dose 2.5 mg/kg
Mus musculus [10] = assay: Induction of hypothermia in CD1 mouse assessed as change in rectal body temperature at 5 mg/kg, ip administered 30 mins prior to test measured after 120 mins relative to control; type: functional, organism-based; design: dose 5 mg/kg
Mus musculus [11] = assay: Induction of hypothermia in CD1 mouse assessed as change in rectal body temperature at 2.5 mg/kg, ip administered 30 mins prior to test measured after 30 mins relative to control; type: functional, organism-based; design: dose 2.5 mg/kg
Mus musculus [12] = assay: Induction of hypothermia in CD1 mouse assessed as change in rectal body temperature at 5 mg/kg, ip administered 30 mins prior to test measured after 60 mins relative to control; type: functional, organism-based; design: dose 5 mg/kg
[13] = biological target: 5-hydroxytryptamine receptor 6 (Homo sapiens, UniProt P50406); assay: Displacement of [3H]-LSD from human 5HT6 receptor expressed in HEK293 cells after 1 hr; type: cell-based
[14] = biological target: 5-hydroxytryptamine receptor 7 (Homo sapiens, UniProt P34969); assay: Displacement of [3H]-5CT from human 5HT7 receptor expressed in HEK293 cells after 1 hr; type: cell-based
[15] = biological target: 5-hydroxytryptamine receptor 2A (Rattus norvegicus, UniProt P14842); assay: Displacement of [3H]-ketanserin from 5HT2A in rat cerebral cortex 20 mins by liquid scintillation counting analysis; type: tissue-based
D(2) dopamine receptor = D(2) dopamine receptor (Homo sapiens, UniProt P14416); assay: Displacement of [3H]-raclopride from human dopamine D2L receptor expressed in HEK293 cells after 1 hr; type: cell-based
Mus musculus [16] = assay: Induction of hypothermia in CD1 mouse assessed as change in rectal body temperature at 5 mg/kg, ip administered 30 mins prior to test measured after 60 mins in presence of WAY 100635 relative to control; type: functional, organism-based; design: dose 5 mg/kg
Mus musculus [17] = assay: Antidepressant activity in CD1 mouse assessed as reduction in immobility time at 2.5 to 5 mg/kg, ip measured during final 4 mins in 6 mins test session after 2 mins habituation period by forced swimming test; type: functional, organism-based
Mus musculus [18] = assay: Induction of hypothermia in CD1 mouse assessed as change in rectal body temperature at 5 mg/kg, ip administered 30 mins prior to test measured after 30 mins in presence of WAY 100635 relative to control; type: functional, organism-based; design: dose 5 mg/kg
Mus musculus [19] = assay: Antidepressant activity in CD1 mouse assessed as reduction in immobility time at 1 to 2 mg/kg, sc measured during final 4 mins in 6 mins test session after 2 mins habituation period by forced swimming test; type: functional, organism-based

Sequence of D(2) dopamine receptor (P14416 whole entry): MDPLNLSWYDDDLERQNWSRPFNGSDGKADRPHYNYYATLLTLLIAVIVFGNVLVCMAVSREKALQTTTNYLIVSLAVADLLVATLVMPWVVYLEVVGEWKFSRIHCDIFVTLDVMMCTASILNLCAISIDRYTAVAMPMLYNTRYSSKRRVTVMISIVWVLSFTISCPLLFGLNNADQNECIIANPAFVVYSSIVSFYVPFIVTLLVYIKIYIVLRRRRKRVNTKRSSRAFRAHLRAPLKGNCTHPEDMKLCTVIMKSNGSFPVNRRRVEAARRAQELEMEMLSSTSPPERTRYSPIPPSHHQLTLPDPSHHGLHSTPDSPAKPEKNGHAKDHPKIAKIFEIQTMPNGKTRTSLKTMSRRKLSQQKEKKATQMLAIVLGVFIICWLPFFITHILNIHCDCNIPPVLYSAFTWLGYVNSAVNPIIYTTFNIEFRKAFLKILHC
Sequence of Sodium-dependent serotonin transporter (P31652 whole entry): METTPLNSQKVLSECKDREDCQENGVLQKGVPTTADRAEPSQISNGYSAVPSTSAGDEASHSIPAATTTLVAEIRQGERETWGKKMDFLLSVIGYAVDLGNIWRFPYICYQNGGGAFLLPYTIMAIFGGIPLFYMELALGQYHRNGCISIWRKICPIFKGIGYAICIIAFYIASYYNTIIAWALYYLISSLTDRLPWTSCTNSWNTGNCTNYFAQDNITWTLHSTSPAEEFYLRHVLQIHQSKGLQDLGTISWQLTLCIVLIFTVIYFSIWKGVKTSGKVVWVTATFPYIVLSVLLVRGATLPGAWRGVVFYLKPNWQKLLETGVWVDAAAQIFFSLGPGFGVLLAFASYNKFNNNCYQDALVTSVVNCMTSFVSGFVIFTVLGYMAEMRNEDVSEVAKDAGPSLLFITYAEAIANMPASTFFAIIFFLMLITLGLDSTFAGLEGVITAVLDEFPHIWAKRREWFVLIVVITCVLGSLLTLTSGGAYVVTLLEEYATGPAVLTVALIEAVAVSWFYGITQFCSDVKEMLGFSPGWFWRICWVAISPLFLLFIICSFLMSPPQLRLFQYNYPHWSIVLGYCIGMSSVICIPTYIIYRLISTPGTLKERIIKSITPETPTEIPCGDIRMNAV
Sequence of 5-hydroxytryptamine receptor 2A (P14842 whole entry): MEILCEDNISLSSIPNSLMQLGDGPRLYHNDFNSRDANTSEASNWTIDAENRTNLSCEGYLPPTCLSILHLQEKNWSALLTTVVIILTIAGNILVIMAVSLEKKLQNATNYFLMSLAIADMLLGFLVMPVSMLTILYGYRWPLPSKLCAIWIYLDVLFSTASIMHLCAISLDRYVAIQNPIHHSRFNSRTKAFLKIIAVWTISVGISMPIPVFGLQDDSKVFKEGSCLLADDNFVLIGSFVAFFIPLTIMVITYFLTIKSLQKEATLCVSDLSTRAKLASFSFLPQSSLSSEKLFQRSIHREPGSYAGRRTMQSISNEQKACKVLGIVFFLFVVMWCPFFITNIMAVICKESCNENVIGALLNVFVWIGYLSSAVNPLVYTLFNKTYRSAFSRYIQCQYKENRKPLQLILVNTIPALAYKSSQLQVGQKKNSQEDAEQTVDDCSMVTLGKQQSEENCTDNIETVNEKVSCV
Sequence of 5-hydroxytryptamine receptor 7 (P34969 whole entry): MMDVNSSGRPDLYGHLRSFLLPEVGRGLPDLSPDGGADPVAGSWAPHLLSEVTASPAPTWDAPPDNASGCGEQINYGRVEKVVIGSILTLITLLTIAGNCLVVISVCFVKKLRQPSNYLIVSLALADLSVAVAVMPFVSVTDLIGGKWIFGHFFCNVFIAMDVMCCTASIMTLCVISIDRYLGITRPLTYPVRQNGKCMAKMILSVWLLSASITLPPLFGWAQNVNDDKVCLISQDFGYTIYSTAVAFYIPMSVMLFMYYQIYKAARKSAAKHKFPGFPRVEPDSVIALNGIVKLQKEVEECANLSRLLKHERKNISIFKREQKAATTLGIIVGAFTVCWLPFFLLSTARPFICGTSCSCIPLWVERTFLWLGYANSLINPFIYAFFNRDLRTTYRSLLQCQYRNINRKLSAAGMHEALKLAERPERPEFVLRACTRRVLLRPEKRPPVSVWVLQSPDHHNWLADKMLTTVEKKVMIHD
Sequence of 5-hydroxytryptamine receptor 6 (P50406 whole entry): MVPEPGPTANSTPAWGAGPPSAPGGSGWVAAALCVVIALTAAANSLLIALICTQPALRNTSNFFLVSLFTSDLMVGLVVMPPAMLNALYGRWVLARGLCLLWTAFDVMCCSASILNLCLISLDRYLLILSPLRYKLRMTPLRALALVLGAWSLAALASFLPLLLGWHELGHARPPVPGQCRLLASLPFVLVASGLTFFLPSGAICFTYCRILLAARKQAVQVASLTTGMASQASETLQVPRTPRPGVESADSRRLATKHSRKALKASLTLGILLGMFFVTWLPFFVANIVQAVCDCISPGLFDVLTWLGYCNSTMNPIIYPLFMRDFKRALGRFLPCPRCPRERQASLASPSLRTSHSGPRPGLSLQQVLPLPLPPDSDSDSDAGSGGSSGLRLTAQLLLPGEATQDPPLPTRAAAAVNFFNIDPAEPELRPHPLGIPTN

O=C1CC(c2c[nH]c3ccccc23)C(=O)N1CCCCN1CCC(c2c[nH]c3ccccc23)CC1 (racemic)
Ki [1]: 5.7 nM
deltaT (Mus musculus [2]): -1.5 °C
deltaT (Mus musculus [3]): -2.1 °C
deltaT (Mus musculus [4]): -1.2 °C
Ki [5]: 15.7 nM
deltaT (Mus musculus [6]): -1.1 °C
deltaT (Mus musculus [7]): -1.3 °C
deltaT (Mus musculus [8]): -2.4 °C
deltaT (Mus musculus [9]): -1 °C
deltaT (Mus musculus [10]): -2.1 °C
deltaT (Mus musculus [11]): -1.3 °C
deltaT (Mus musculus [12]): -2.8 °C

O=C1CC(c2c[nH]c3ccccc23)C(=O)N1CCCCN1CC=C(c2c[nH]c3ccc(Cl)cc23)CC1 (racemic)
Ki [1]: 74.4 nM
Ki [5]: 68.7 nM

O=C1CC(c2c[nH]c3ccccc23)C(=O)N1CCN1CCC(c2c[nH]c3ccc(F)cc23)CC1 (racemic)
Ki [1]: 381 nM
Ki [13]: 1150 nM
Ki [14]: 1160 nM
Ki [5]: 8.1 nM
Ki [15]: 384 nM
Ki (D(2) dopamine receptor): 80 nM

COc1ccc2[nH]cc(C3CCN(CCCCN4C(=O)CC(c5c[nH]c6ccccc56)C4=O)CC3)c2c1 (racemic)
Ki [1]: 210 nM
Ki [13]: 159 nM
Ki [14]: 345 nM
Ki [5]: 2.2 nM
Ki [15]: 498 nM
Ki (D(2) dopamine receptor): 161 nM

O=C1CC(c2c[nH]c3ccccc23)C(=O)N1CCN1CC=C(c2c[nH]c3ccccc23)CC1 (racemic)
Ki [1]: 33.8 nM
Ki [5]: 250 nM

O=C1CC(c2c[nH]c3ccccc23)C(=O)N1CCCN1CC=C(c2c[nH]c3ccc(F)cc23)CC1 (racemic)
Ki [1]: 5.2 nM
Ki [5]: 106 nM

O=C1CC(c2c[nH]c3ccccc23)C(=O)N1CCCCN1CCC(c2c[nH]c3ccc(F)cc23)CC1 (racemic)
Ki [1]: 505 nM
Ki [13]: 63 nM
Ki [14]: 196 nM
Ki [5]: 7.5 nM
Ki [15]: 71 nM
Ki (D(2) dopamine receptor): 14 nM

O=C1CC(c2c[nH]c3ccccc23)C(=O)N1CCCN1CC=C(c2c[nH]c3ccccc23)CC1 (racemic)
Ki [1]: 4 nM
Ki [5]: 161 nM

COc1ccc2[nH]cc(C3=CCN(CCCCN4C(=O)CC(c5c[nH]c6ccccc56)C4=O)CC3)c2c1 (racemic)
Ki [1]: 46.2 nM
deltaT (Mus musculus [16]): -0.3 °C
deltaT (Mus musculus [2]): -0.5 °C
deltaT (Mus musculus [3]): -1.1 °C
deltaT (Mus musculus [4]): -0.4 °C
Ki [5]: 3.2 nM
deltaT (Mus musculus [7]): -0.7 °C
Activity (Mus musculus [17]): inactive
deltaT (Mus musculus [8]): -1.1 °C
deltaT (Mus musculus [18]): -0.4 °C
deltaT (Mus musculus [10]): -0.9 °C
deltaT (Mus musculus [11]): -0.5 °C
deltaT (Mus musculus [12]): -1.1 °C

O=C1CC(c2c[nH]c3ccccc23)C(=O)N1CCCCN1CC=C(c2c[nH]c3ccccc23)CC1 (racemic)
Ki [1]: 11.3 nM
deltaT (Mus musculus [16]): -1.2 °C
deltaT (Mus musculus [2]): -0.6 °C
deltaT (Mus musculus [3]): -1.5 °C
deltaT (Mus musculus [4]): -0.9 °C
Ki [5]: 12.5 nM
deltaT (Mus musculus [7]): -0.9 °C
deltaT (Mus musculus [8]): -1.5 °C
deltaT (Mus musculus [18]): -1.2 °C
deltaT (Mus musculus [10]): -1.4 °C
deltaT (Mus musculus [11]): -0.7 °C
deltaT (Mus musculus [12]): -1.4 °C

O=C1CC(c2c[nH]c3ccccc23)C(=O)N1CCN1CC=C(c2c[nH]c3ccc(F)cc23)CC1 (racemic)
Ki [1]: 68.4 nM
Ki [5]: 372 nM

O=C1CC(c2c[nH]c3ccccc23)C(=O)N1CCCCN1CC=C(c2c[nH]c3ccc(F)cc23)CC1 (racemic)
Ki [1]: 20 nM
deltaT (Mus musculus [16]): -0.2 °C
deltaT (Mus musculus [2]): -0.7 °C
deltaT (Mus musculus [3]): -1.3 °C
deltaT (Mus musculus [4]): -0.7 °C
Ki [5]: 17.6 nM
deltaT (Mus musculus [7]): -0.7 °C
Activity (Mus musculus [17]): inactive
deltaT (Mus musculus [8]): -1.6 °C
deltaT (Mus musculus [18]): -0.5 °C
deltaT (Mus musculus [10]): -1.2 °C
deltaT (Mus musculus [11]): -0.6 °C
deltaT (Mus musculus [12]): -1.5 °C

O=C1CC(c2c[nH]c3ccccc23)C(=O)N1CCN1CC=C(c2c[nH]c3ccc(Br)cc23)CC1 (racemic)
Ki [1]: 673 nM
Ki [5]: 324 nM

O=C1CC(c2c[nH]c3ccccc23)C(=O)N1CCCN1CC=C(c2c[nH]c3ccc(Cl)cc23)CC1 (racemic)
Ki [1]: 50.7 nM
Ki [5]: 285 nM

COc1ccc2[nH]cc(C3=CCN(CCN4C(=O)CC(c5c[nH]c6ccccc56)C4=O)CC3)c2c1 (racemic)
Ki [1]: 784 nM
Ki [5]: 1740 nM

O=C1CC(c2c[nH]c3ccccc23)C(=O)N1CCN1CC=C(c2c[nH]c3ccc(Cl)cc23)CC1 (racemic)
Ki [1]: 96.7 nM
Ki [5]: 406 nM

O=C1CC(c2c[nH]c3ccccc23)C(=O)N1CCN1CCC(c2c[nH]c3ccccc23)CC1 (racemic)
Ki [1]: 56 nM
Ki [5]: 364 nM

O=C1CC(c2c[nH]c3ccccc23)C(=O)N1CCCN1CCC(c2c[nH]c3ccc(F)cc23)CC1 (racemic)
Ki [1]: 215 nM
Ki [5]: 122 nM

COc1ccc2[nH]cc(C3CCN(CCN4C(=O)CC(c5c[nH]c6ccccc56)C4=O)CC3)c2c1 (racemic)
Ki [1]: 1850 nM
Ki [5]: 352 nM

CCCN(CCC)C1CCc2cccc(O)c2C1 (configuration not stated)
Activity (Mus musculus [19]): Active

COc1ccc2[nH]cc(C3=CCN(CCCN4C(=O)CC(c5c[nH]c6ccccc56)C4=O)CC3)c2c1 (racemic)
Ki [1]: 125 nM
Ki [5]: 210 nM

O=C1CC(c2c[nH]c3ccccc23)C(=O)N1CCCN1CC=C(c2c[nH]c3ccc(Br)cc23)CC1 (racemic)
Ki [1]: 182 nM
Ki [5]: 111 nM

O=C1CC(c2c[nH]c3ccccc23)C(=O)N1CCCN1CCC(c2c[nH]c3ccccc23)CC1 (racemic)
Ki [1]: 354 nM
Ki [5]: 68.5 nM

COc1ccc2[nH]cc(C3CCN(CCCN4C(=O)CC(c5c[nH]c6ccccc56)C4=O)CC3)c2c1 (racemic)
Ki [1]: 221 nM
Ki [13]: 264 nM
Ki [14]: 589 nM
Ki [5]: 32.6 nM
Ki [15]: 11600 nM
Ki (D(2) dopamine receptor): 343 nM

O=C1CC(c2c[nH]c3ccccc23)C(=O)N1CCCCN1CC=C(c2c[nH]c3ccc(Br)cc23)CC1 (racemic)
Ki [1]: 208 nM
Ki [5]: 59.1 nM
